Columns and labels:
[1] = test system: human multiple myeloma NCI-H929 xenograft tumors; experiment: In vivo antitumor activity against NCI-H929 transplanted tumors; parameters: species or system NOD/SCID mice; settings: QD; for growth of NCI-H929 transplanted tumors (in words): 3 mg/kg and 10 mg/kg; for Tumor inhibition rate TGI (%) / Average volume (mm^3) (Day 10) / Initial volume (mm^3): oral gavage; for Tumor inhibition rate TGI (%): 10 consecutive days; for Initial volume (mm^3): baseline
Experimental: In this example, the human multiple myeloma NCI-H929 cell line was used as the cell model. The inhibitory effects of compounds on the growth of NOD/SCID mouse transplanted tumors of NCI-H929 tumor cells were determined. The evaluation methods and results are described below.
(§1) Human multiple myeloma NCI-H929 cells were routinely cultured in RPMI1640 containing 10% fetal bovine serum at 37°C in a 5% CO2 incubator. After three passages in vitro, when the cells reached over 80% confluence and the required confluence rate, the cells were digested and harvested. After washing with PBS, the cells were counted and the cell concentration was adjusted to approximately 5 × 10^7 cells/mL. The cells were then placed in 4 mL centrifuge tubes on ice for later use.
(§2) Female NOD/SCID mice aged 4-5 weeks were selected and subcutaneously inoculated with NCI-H929 cells ectopically. The mice were held in a lateral position, the forelimb axilla was disinfected with 75% alcohol, and 100 µL of the cell suspension was injected subcutaneously into the axilla using a 1 mL syringe ([…]/100 µL).
After the tumors grew to 90-150 mm^3, the animals were randomly divided into groups, 8 mice in each group, and administered according to different administration methods as follows: • Model control group: Administered with the same volume of Vehicle (DMSO: 0.5% sodium carboxymethyl cellulose: distilled water = 1:1:8) daily by gavage; • Control drug group 1: administered with pomalidomide solution at 10 mg/kg (mouse body weight) daily by gavage; • Control drug group 2: administered with CC-220 solution at 3 mg/kg (mouse body weight) daily by gavage; • Control drug group 3: administered with CC-220 solution at 10 mg/kg (mouse body weight) daily by gavage; • Experimental compound group 4: administered with compound I-4 solution at 3 mg/kg (mouse body weight) daily by gavage; • Experimental compound group 5: administered with compound I-4 solution at 10 mg/kg (mouse body weight) daily by gavage; • Experimental compound group 6: administered with compound I-8 solution at 3 mg/kg (mouse body weight) daily by gavage; • Experimental compound group 7: administered with compound I-8 solution at 10 mg/kg (mouse body weight) daily by gavage;
(§3) The route of administration was oral gavage, and the administration frequency was once daily, for 10 consecutive days. The first day of administration was defined as Day 1 of the experiment. Tumor volume changes in mice were measured and recorded every two days. Tumor volume was measured using a vernier caliper, in which the major axis (a) and minor axis (b) of the tumor were measured, and the tumor volume was calculated as tumor volume V (mm^3) = a x b^2/2. After the experiment, the mice were dissected and the tumor weight was measured. The data were entered and statistically analyzed using GraphPad Prism 6 software. The data are expressed as mean ± SEM (Standard Error of Mean), and one-way ANOVA was used. P ≤ 0.05 was considered statistically significant.

[2] = test system: human multiple myeloma NCI-H929 xenograft tumors; experiment: In vivo activity in combination with dexamethasone against NCI-H929 transplanted tumor; parameters: species or system NOD/SCID mice; settings: each drug 3 mg/kg, QD; for Tumor inhibition rate TGI (%) / Average volume (mm^3) (Day 10) / Initial volume (mm^3): oral gavage, alone or combined; for Tumor inhibition rate TGI (%): 10 consecutive days; for Initial volume (mm^3): baseline
Experimental: In this example, human multiple myeloma NCI-H929 cell line was selected as the cell model to determine the inhibitory effects of compound and dexamethasone alone, as well as combination thereof on the growth of NOD/SCID mouse transplanted tumors of NCI-H929 tumor cells. The evaluation methods and results are described below.
as §1, §2
After the tumors grew to 90-150 mm^3, the animals were randomly divided into groups, 8 mice in each group, and administered according to different administration methods as follows: • Model control group: Administered with the same volume of Vehicle (DMSO: 0.5% sodium carboxymethyl cellulose: distilled water = 1:1:8) daily by gavage; • Test group 1: administered with dexamethasone (Dex) solution at 3 mg/kg (mouse body weight) daily by gavage; • Test group 2: administered with I-4 solution at 3 mg/kg (mouse body weight) daily by gavage; • Test group 3: administered with I-8 solution at 3 mg/kg (mouse body weight) daily by gavage; • Test group 4: administered with dexamethasone at 3 mg/kg (mouse body weight) and 1-4 solution at 3 mg/kg (mouse body weight) daily by gavage; • Test group 5: administered with dexamethasone at 3 mg/kg (mouse body weight) and I-8 solution at 3 mg/kg (mouse body weight) daily by gavage;
as §3

[3] = test system: NCI-H929-pomalidomide-R cells; experiment: Antiproliferative activity against resistant cells, CCK-8 assay; format: cell-based; settings: Homo sapiens, 144 hours incubation
Experimental: In this example, lenalidomide-resistant human multiple myeloma cells, including NCI-H929 (NCI-H929-Lenalidomide-R) and RPMI-8226 (RPMI-8226-Lenalidomide-R), and pomalidomide-resistant human multiple myeloma cells, including NCI-H929 (NCI-H929-pomalidomide-R) and RPMI-8226 (RPMI-8226-pomalidomide-R), were selected as cell models to determine the inhibitory activity of compound I-8 of the present invention against the proliferation of the resistant cells.
• ① I-8 was dissolved in DMSO to prepare a 10 mM stock solution. Compounds used within three months should be stored at room temperature in a desiccator; others could be stored at -20°C for long-term storage. • ② The I-8 stock solution and the reference compounds lenalidomide and pomalidomide were all diluted with DMSO. Their initial concentrations were 10 µM. In the experiments of lenalidomide-resistant human multiple myeloma cells (NCI-H929 (NCI-H929-Lenalidomide-R) and RPMI-8226 (RPMI-8226-Lenalidomide-R) and pomalidomide-resistant human multiple myeloma cells (NCI-H929 (NCI-H929-pomalidomide-R) and RPMI-8226 (RPMI-8226-pomalidomide-R), 3-fold serial dilution with 11 concentration points was performed, with the lowest concentration of […]. The resulting solutions were shaken on a shaker for 5 minutes.
• ① The NCI-H929-Lenalidomide-R, RPMI-8226-Lenalidomide-R, NCI-H929-pomalidomide-R, and RPMI-8226-pomalidomide-R cells in logarithmic growth phase were inoculated in a 96-well plate, 20,000 to 30,000 cells per well, and the plate was pre-cultured for 24 hours in an incubator (at 37°C and 5% CO2). • ® The culture medium in the plate was replaced, and the compounds and the positive controls with corresponding concentrations were added to the plated at a volume of 50 µL. • ③ The plate was incubated for 144 hours in an incubator, then 15 µL of CCK-8 solution was added to each well, and the plate was incubated in the incubator for another 1-4 hours. • ④ The absorbance at 450 nm was measured using a microplate reader.
• ① Calculating % Inhibition: [formula] • ② Calculating IC50 value of compound and plotting dose-response curve: The IC50 value was calculated by fitting the % Inhibition and the logarithm of compound concentration to a nonlinear regression (dose response-variable slope) by using GraphPad 6.0. Y = Bottom + (Top−Bottom)/(1+10^(∧)((LogIC50−X)*HillSlope)) [formula] X: log of inhibitor concentration; Y: % Inhibition.
After calculating % Inhibition, a dose-response curve was plotted with the logarithm of the test compound concentration as the x-axis and the average cell viability as the y-axis, and the IC50 value was obtained by fitting.

Row | IC50 [3] [µM] | SMILES | growth of NCI-H929 transplanted tumors (in words) [1] | Tumor inhibition rate TGI (%) ([1]; 3 mg/kg) | Average volume (mm^3) (Day 10) ([1]; 3 mg/kg) | Initial volume (mm^3) ([1]; 3 mg/kg) | Tumor inhibition rate TGI (%) ([1]; 10 mg/kg) | Average volume (mm^3) (Day 10) ([1]; 10 mg/kg) | Initial volume (mm^3) ([1]; 10 mg/kg) | growth of NCI-H929 transplanted tumors (in words) [2] | Tumor inhibition rate TGI (%) [2] [%] | Average volume (mm^3) (Day 10) [2] | Initial volume (mm^3) [2] [mm^3]
1 | – | CN1Cc2c(N)cccc2C(=O)N1C1CCC(=O)NC1=O (stereo not drawn) [I-4, 3-(5-amino-3-methyl-1-oxo-3,4-dihydrophthalazin-2(1H)-yl)piperidin-2,6-dione] | significantly inhibited the growth | 66.53 | 843.1 | 191.6 | 92.82 | 344.5 | 204.8 | effectively inhibit the growth | 68.03 | 689.9 | 183.9
2 | 0.095 | CN1Cc2c(NCc3ccc(CN4CCN(c5ccc(C#N)c(F)c5)CC4)cc3)cccc2C(=O)N1C1CCC(=O)NC1=O (stereo not drawn) [I-8] | significantly inhibited the growth | 84.25 | 500.1 | 193.5 | 100.72 | 197.3 | 211.3 | effectively inhibit the growth | 82.64 | 458.1 | 183.3
3 | > 100 | Nc1cccc2c1C(=O)N(C1CCC(=O)NC1=O)C2=O (stereo not drawn) [Pomalidomide, reference compound] | – | – | – | – | 80.09 | 573.1 | 185.6 | – | – | – | –
